# Test results as given in US12133836B2, “Reduction of adipose tissue” (10XBIO, LLC, priority 2015, dated 2024).
# Columns and labels:
# [1] = test system: fat tissue; experiment: Co-solvent injected with polidocanol (tolerability, uniformity of fat necrosis); format: in vivo; settings: as co-solvent
# [2] = test system: skin tissue; experiment: Skin adverse events (skin necrosis) after subcutaneous injection into the inguinal fat pad; format: in vivo, LVG Syrian Golden Hamsters
# Description: (§1) Model: The inguinal fat pads were used as a model tissue. In the golden hamster, these subcutaneous fat pads lying bilaterally in the inguinal region were continuous with fat pads located laterally on each respective flank, and thus were referenced here as inguinal-lateral fat pads or ILFPs. The length of each fat pad offered the opportunity for two injections spaced approximately […] within each fat pad, and similarly placed control injections in the contralateral fat pad of the same animal. The unilateral experimental treatment in this model offered the advantage of paired comparison of treated and non-treated fat pads within individual animals, and served as a model to assess lipolytic effects of test compounds.
# (§2) Test Articles: Polidocanol: Solutions provided by Advantar (or other), 0.5%, 1.25%, and 2.0%, formulated with propylene glycol.
# (§3) Treatment: Under isoflurane anesthesia, the right ILFP was injected with 0.2 cc of drug solution at two sites (medial and lateral portions of the ILFP), spaced 0.5 cm apart. The left ILFP was injected in medial and lateral sites with filtered vehicle control solution. A total of 36 animals were divided into three dose groups, outlined in the following table:
# (§4) The animals were injected percutaneously with 0.2 mL/injection of test article solution at up to four (4) sites (in the medial, central, and lateral portions of the ILFP) running superiorly to caudally, spaced 0.5 cm apart. The injections were carried out by inserting the needle into the right inguinal region, locating the tip of the needle in the middle of the fat pad between the peritoneal wall and the right leg. In hamsters, the fat could be roughly visualized as a light area beneath the skin. The tip of the needle was at a depth adequate to enter the inguinal fat (as discerned by the thickness of tissue when the needle tip is raised slightly upward while in its final position) while avoiding the leg muscle and the peritoneum. The needle tip was placed approximately 0.5 cm medial to a line drawn from the patella of the knee to the xyphoid appendix of the sternum.
# [3] = test system: inguinal-lateral fat pad (ILFP); experiment: Effect of polidocanol on the inguinal-lateral fat pad (ILFP) of hamsters: fat weight analysis; format: in vivo, LVG Syrian Golden Hamsters
# Description: Concentration of polidocanol solutions: 0.5%, 1.25% and 2%; Deoxycholate dose concentration: 1.0%
# Species: LVG Syrian Golden Hamsters, retired breeders
# Body weight: 165-187 grams (on first day of treatment period); Sex: Male; Vendor: Charles River; Diet: Standard lab chow; Randomization: Animals were grouped so that the mean body weights are approximately equal among the treatment subgroups
# as §1, §2, §3
# Harvesting: On day 28 (injections at Day 0) and 56 (injections at Day 0 and Day 28), the animals were sacrificed and the ILFPs excised and weighed (see “INGUINAL/LATERAL FAT PAD HARVESTING PROCEDURE,” below). Medial and lateral portions of each ILFP were weighed together. After weighing, each portion was frozen separately on dry ice and stored frozen for histological analysis.
# Fat weight analysis: Results were expressed primarily as the mean difference between the right and left ILFPs in grams (A R-L) and as the percent difference (A R-L %). Statistical analysis was performed.
# as §4
# With the animal lying ventral side up, skin was cut along abdominal midline from the umbilicus to a point caudal to the penis near the bottom of the scrotum. The skin was cut from the penile area in a posterior and lateral direction toward the posterior of the hindlimb. […] An elipse was harvested of skin overlying the region of the ILFP, and placed in formalin for storage and. […]
# [4] = test system: adipose tissue; experiment: Histological analysis of treated adipose tissue (H&E); format: in vivo, LVG Syrian Golden Hamsters; settings: H&E stained sections
# Protocol: Histological analysis: The right (polidocanol treated) medial injection sites of all six subjects, and one left (saline treated) site from each treatment group (animals #3 and #5), were analyzed histologically to determine evidence of necrosis within the adipose tissue. The selected samples were sectioned at a thickness of 20 microns taken at intervals of 0.5 mm through the tissue. The sections were mounted and stained with H&E and examined microscopically for evidence of necrosis or inflammation. Representative images of each tissue were recorded with a Carl Zeiss color camera.
# In addition, there is a lymphomononuclear inflammatory infiltrate with macrophage phagocytosis of lipid cell debris.
compound,measurement,setting,value
"CC(O)CO (centres unmarked) [propylene glycol, propane-1,2-diol]",irritation when injected with polidocanol,[1],non-irritating
same,patchy and incomplete fat tissue necrosis,[1]; relative to the absence of co-solvent,reduced amount of patchy and incomplete fat tissue necrosis
deoxycholate,animals that developed severe skin necrosis,[2]; 1% deoxycholate (3 of 5 animals),60%
same,"skin necrosis side effect, number of animals","[2]; Deoxycholate 1%, Group 4 (FIG. 8C)",3 of 5
polidocanol,visible change in inguinal fat pad fullness / inguinal crease (body contour),[3]; FIG. 5A-5B,externally visible reduction in inguinal fat pad fullness
same,reductions in inguinal fat pad mass,"[3]; polidocanol 0.5%, day 28 after a single treatment, formulated with propylene glycol",15%
same,reductions in inguinal fat pad mass,"[3]; polidocanol 1.25%, day 28 after a single treatment, formulated with propylene glycol",15%
same,fat pad mass reductions,"[3]; polidocanol 2.0%, day 28 after a single treatment, formulated with propylene glycol",10%
same,reductions in fat pad mass relative to deoxycholate,"[3]; same optimized dosing frequency, volume, and injection spacing (FIG. 3)",at least equivalent to deoxycholate
same,histopathology of treated adipose tissue,[4],dose dependent changes of fat cell necrosis and apoptosis
same,skin necrosis (proportion of animals),[2]; 2% polidocanol,33%
same,selectivity for fat tissue relative to skin tissue,[2]; FIG. 6,selectively destroys fat tissue relative to skin tissue
same,"skin necrosis side effect, number of animals","[2]; Polidocanol 1.25%, Group 2A, moderate skin necrosis (FIG. 8A)",1 of 9
same,"skin necrosis side effect, number of animals","[2]; Polidocanol 2%, Group 3B, moderate skin necrosis (FIG. 8B)",2 animals
same,"side effects such as skin necrosis, inflammation, large subcutaneous fat droplets",[2]; polidocanol concentration greater than about 1.25%,higher proportion of side effects
same,animals with mild skin breakdown,[2]; polidocanol injection at 0.5% (1 of 9 animals),11%
same,animals with mild skin breakdown,[2]; polidocanol injection at 1.25% (1 of 9 animals),11%
